Article PMC6754450, “Antimicrobial activity and mechanism of action of a novel peptide present in the ecdysis process of centipede Scolopendra subspinipes subspinipes” (Scientific Reports, 2019)
Values after ≈ are worked out from the molar mass of the structure shown. Where a SMILES comes first, the peptide text is derived from it.

What was measured:
[1] = test system: All of the microorganisms tested; assay: Antimicrobial activity, summary over all microorganisms tested; type: cell-based; details: summary of Table 1; 17 bacterial, yeast and fungal strains
Description: (§1) During the purification procedure, the antimicrobial activities of the fractions were monitored by liquid growth inhibition assays against E. coli SBS 363, M. luteus A270, A. niger, and C. albicans MDM8. Bacteria were cultured in poor nutrient broth (PB) (1.0 g peptone in 100 mL of water containing 86 mM NaCl at pH 7.4; 217 mOsm), and fungi and yeasts were cultured in poor potato dextrose broth (1/2- strength PDB) (1.2 g potato dextrose in 100 mL of water at pH 5.0; 79 mOsm). Determination of antimicrobial activity was performed as previously described[12]–[14].
(§2) The MIC is defined as the minimum concentration of peptide required to achieve 100% growth inhibition. […] The two peptides were dissolved in ultrapure water at a final concentration of 1 mM. […] MBCs were determined after 96 h of incubation at 30 °C. The lowest concentration with no visible growth was defined as the MBC, indicating 99.5% killing of the original inoculum. Microbial growth was measured by monitoring the increase in optical density at 595 nm using a Victor 3TM 1420 multilabel counter (PerkinElmer, Waltham, MA, USA). Assays were performed in triplicate.

[2] = 25% fresh human blood plasma in water, 37 °C; 20 µL of 10 mg/mL peptide stock in 1 mL; TFA quench; LC/ESI-MS peak area; triplicate; followed over 360 min
Description: An aliquot (20 μL) of the aqueous peptide stock solution (10 mg/mL) was added to 1 mL of 25% solution of fresh human blood plasma in water at 37 °C. Aliquots (50 μL) were withdrawn and added to 5 μL of pure trifluoroacetic acid (TFA) at different time intervals, then incubated at 5 °C for 15 min. Following incubation, the resulting mixtures were centrifuged at 3000 g for 5 min. The supernatants (20 μL) were injected into an online LC/ESI-MS equipment. Elution was performed using an ACN/TFA linear gradient of 3% to 57% ACN at a flow rate of 0.3 mL/min for 30 min. The remaining peptide was monitored by the corresponding peak area in the chromatogram. Assays were conducted in triplicate.
The human blood sample was obtained from a healthy adult donor at Vital Brazil Hospital in accordance with Ethical Guidelines of the Butantan Institute (protocol CEUAIB No. I-1043/13). Written informed consent was obtained from the donor.

[3] = test system: Alcaligenes faecalis ATCC 8750; assay: Liquid growth inhibition assay (MIC/MBC); type: cell-based; details: PB medium, highest concentration tested 100 µM, triplicate
Description: as §1, §2

Aspergillus niger = assay: Liquid growth inhibition assay (MIC/MBC); type: cell-based; details: 1/2-strength PDB, highest concentration tested 100 µM, triplicate
Description: as §1, §2

[4] = test system: Bacillus megaterium ATCC 10778; assay: Liquid growth inhibition assay (MIC/MBC); type: cell-based; details: PB medium, highest concentration tested 100 µM, triplicate
Description: as §1, §2

[5] = test system: Bacillus subtilis ATCC 6633; assay: Liquid growth inhibition assay (MIC/MBC); type: cell-based; details: PB medium, highest concentration tested 100 µM, triplicate
Description: as §1, §2

Beauveria bassiana = assay: Liquid growth inhibition assay (MIC/MBC); type: cell-based; details: 1/2-strength PDB, highest concentration tested 100 µM, triplicate
Description: as §1, §2

Candida albicans MDM8 = assay: Liquid growth inhibition assay (MIC/MBC); type: cell-based; details: 1/2-strength PDB, highest concentration tested 100 µM, triplicate
Description: as §1, §2

[6] = test system: Candida tropicalis IOC 4560; assay: Liquid growth inhibition assay (MIC/MBC); type: cell-based; details: 1/2-strength PDB, highest concentration tested 100 µM, triplicate
Description: as §1, §2

[7] = test system: Enterobacter cloacae β-12; assay: Liquid growth inhibition assay (MIC/MBC); type: cell-based; details: PB medium, highest concentration tested 100 µM, triplicate
Description: as §1, §2

Escherichia coli D31 = assay: Liquid growth inhibition assay (MIC/MBC); type: cell-based; details: PB medium, highest concentration tested 100 µM, triplicate
Description: as §1, §2

Escherichia coli SBS 363 = assay: Liquid growth inhibition assay (MIC/MBC); type: cell-based; details: PB medium, highest concentration tested 100 µM, triplicate
Description: as §1, §2

Micrococcus luteus A270 = assay: Liquid growth inhibition assay (MIC/MBC); type: cell-based; details: PB medium, highest concentration tested 100 µM, triplicate
Description: as §1, §2

[8] = test system: Pseudomonas aeruginosa ATCC 27853; assay: Liquid growth inhibition assay (MIC/MBC); type: cell-based; details: PB medium, highest concentration tested 100 µM, triplicate
Description: as §1, §2

[9] = test system: Saccharomyces cerevisiae PM340; assay: Liquid growth inhibition assay (MIC/MBC); type: cell-based; details: 1/2-strength PDB, highest concentration tested 100 µM, triplicate
Description: as §1, §2

[10] = test system: Salmonella Arizonae ATCC 13314; assay: Liquid growth inhibition assay (MIC/MBC); type: cell-based; details: PB medium, highest concentration tested 100 µM, triplicate
Description: as §1, §2

[11] = test system: Salmonella Typhimurinum ATCC 14028; assay: Liquid growth inhibition assay (MIC/MBC); type: cell-based; details: PB medium, highest concentration tested 100 µM, triplicate
Description: as §1, §2

[12] = test system: Serratia marcescens ATCC 4112; assay: Liquid growth inhibition assay (MIC/MBC); type: cell-based; details: PB medium, highest concentration tested 100 µM, triplicate
Description: as §1, §2

[13] = test system: Staphylococcus aureus ATCC 29213; assay: Liquid growth inhibition assay (MIC/MBC); type: cell-based; details: PB medium, highest concentration tested 100 µM, triplicate
Description: as §1, §2

human erythrocytes = assay: Haemolytic activity; type: cell-based; details: 3% erythrocytes in PBS, 3 h, 37 °C; for Haemolysis (%): A414, relative to 0.1% Triton X-100, triplicate
Description: Absorbance in the supernatant was measured at 414 nm. The haemolysis percentage was expressed in relation to a 100% lysis control (erythrocytes incubated with 0.1% Triton X-100); PBS was used as a negative control. Assays were conducted in triplicate.
Red blood cells were obtained under the same conditions and from the same donor mentioned in the plasma stability assay section.

[14] = 100% growth inhibition, two-fold serial dilution, 30 °C, 18 h
[15] = no visible growth after 96 h at 30 °C

CC(=O)N[C@H](C(=O)N[C@@H](C)C(=O)N[C@@H](CCC(=O)O)C(=O)N[C@@H](C)C(=O)N[C@@H](CCCNC(=N)N)C(=O)N[C@@H](CCC(N)=O)C(=O)NCC(=O)N[C@@H](CO)C(=O)N[C@@H](Cc1ccccc1)C(=O)N[C@@H](CO)C(=O)N[C@@H](Cc1ccc(O)cc1)C(N)=O)C(C)C [Pinipesin AC] (Ac-VAEARQGSFSY-NH2)
Concentrations at which active against all microorganisms tested [1]: did not show antimicrobial activity | Time within which peptide is almost totally digested in human plasma [2]: ≤ 60 min

CC(C)[C@H](N)C(=O)N[C@@H](C)C(=O)N[C@@H](CCC(=O)O)C(=O)N[C@@H](C)C(=O)N[C@@H](CCCNC(=N)N)C(=O)N[C@@H](CCC(N)=O)C(=O)NCC(=O)N[C@@H](CO)C(=O)N[C@@H](Cc1ccccc1)C(=O)N[C@@H](CO)C(=O)N[C@@H](Cc1ccc(O)cc1)C(=O)O [Pinipesin] (H-VAEARQGSFSY-OH)
MIC [3, 14]: 15.16 µg/mL (≈ 12.5 µM) | MBC [3, 15]: 15.16 µg/mL (≈ 12.5 µM) | MIC (Aspergillus niger; [14]): 30.33 µg/mL (≈ 25 µM) | MBC (Aspergillus niger; [15]): 30.33 µg/mL (≈ 25 µM) | MIC [4, 14]: 15.16 µg/mL (≈ 12.5 µM) | MBC [4, 15]: 15.16 µg/mL (≈ 12.5 µM) | MIC [5, 14]: 30.33 µg/mL (≈ 25 µM) | MBC [5, 15]: 30.33 µg/mL (≈ 25 µM) | MIC (Beauveria bassiana; [14]): 30.33 µg/mL (≈ 25 µM) | MBC (Beauveria bassiana; [15]): 30.33 µg/mL (≈ 25 µM) | MIC (Candida albicans MDM8; [14]): 30.33 µg/mL (≈ 25 µM) | MBC (Candida albicans MDM8; [15]): 30.33 µg/mL (≈ 25 µM) | MIC [6, 14]: 30.33 µg/mL (≈ 25 µM) | MBC [6, 15]: 30.33 µg/mL (≈ 25 µM) | MIC [7, 14]: 30.33 µg/mL (≈ 25 µM) | MBC [7, 15]: 30.33 µg/mL (≈ 25 µM) | MIC (Escherichia coli D31; [14]): 15.16 µg/mL (≈ 12.5 µM) | MBC (Escherichia coli D31; [15]): 15.16 µg/mL (≈ 12.5 µM) | MIC (Escherichia coli SBS 363; [14]): 30.33 µg/mL (≈ 25 µM) | MBC (Escherichia coli SBS 363; [15]): 30.33 µg/mL (≈ 25 µM) | MIC (Micrococcus luteus A270; [14]): 7.58 µg/mL (≈ 6.24 µM) | MBC (Micrococcus luteus A270; [15]): 15.16 µg/mL (≈ 12.5 µM) | MIC [8, 14]: 15.16 µg/mL (≈ 12.5 µM) | MBC [8, 15]: 15.16 µg/mL (≈ 12.5 µM) | MIC [9, 14]: 30.33 µg/mL (≈ 25 µM) | MBC [9, 15]: 30.33 µg/mL (≈ 25 µM) | MIC [10, 14]: 30.33 µg/mL (≈ 25 µM) | MBC [10, 15]: 30.33 µg/mL (≈ 25 µM) | MIC [11, 14]: 15.16 µg/mL (≈ 12.5 µM) | MBC [11, 15]: 15.16 µg/mL (≈ 12.5 µM) | MIC [12, 14]: 30.33 µg/mL (≈ 25 µM) | MBC [12, 15]: 30.33 µg/mL (≈ 25 µM) | MIC [13, 14]: 7.58 µg/mL (≈ 6.24 µM) | MBC [13, 15]: 7.58 µg/mL (≈ 6.24 µM) | Time within which peptide is almost totally digested in human plasma [2]: ≤ 60 min | Haemolysis (%) (human erythrocytes; 4 µM peptide): 0% | Haemolysis (%) (human erythrocytes; 8 µM peptide): 0% | Haemolysis (%) (human erythrocytes; 16 µM peptide): 0% | Haemolysis (%) (human erythrocytes; 32 µM peptide): 0% | Haemolysis (%) (human erythrocytes; 125 µM peptide): 0% | Haemolysis (%) (human erythrocytes; 250 µM peptide): 0% | Haemolysis (%) (human erythrocytes; 500 µM peptide): 25.14% | Haemoglobin release at the concentrations active against bacteria, yeasts and fungi (human erythrocytes): No haemoglobin release was observed
